Reference: US10441568B2, “Nitroxide radicals for the treatment of diseases of the respiratory tract” (priority 2015, dated 2019)

Columns and labels:
[1] = system: IL-5; test: IL-5 level in OVA asthma model; type: in vivo, BALB/c mice; settings: for IL-5 level: lung tissue (table title)
Description: All experimental procedures were carried out in accordance with the NIH Guidelines for the Care and Use of Laboratory Animals. Specific pathogen-free (SPF) male BALB/c mice (6-7 weeks of age, 18-22 grams), routinely screened serologically for relevant respiratory pathogens, were maintained in an animal housing facility for 1 week before use and given access to food and water ad libitum. Animals were randomly assigned to the indicated experimental groups, and sensitized with two intraperitoneal (IP) injections (20 μg ovalbumin (OVA) emulsified in 2 mg aluminum hydroxide (an adjuvant) in 200 μl phosphate buffer saline (PBS), pH 7.4), on days 1 and 10.
After another week, the animals were challenged by exposure to ovalbumin (OVA) aerosol (1%, w/v, in PBS) for 30 minutes each day on days 17, 18 and 19, in order to elicit an inflammatory reaction in the lungs characterized by airway hyper-responsiveness (AHR), an influx of inflammatory cells (particularly eosinophils), and increased pulmonary levels of various cytokines and transforming growth factors, protein nitration and lipid peroxidation.
Bronchoalveolar lavage (BAL) fluid (also referred to herein as “BALf”) and bronchial submucosal inflammation are characteristic features of asthma. Mice were euthanized with an overdose of 50 mg/kg pentobarbital and ice-cold phosphate buffer saline (PBS) (0.6 ml) was instilled into the lungs. BAL fluid was obtained by three aspirations via tracheal cannulation, centrifuged, and the supernatant collected and stored at −70° C. Cell pellets were re-suspended in PBS and 100 μl aliquots placed onto slides and centrifuged (200 g, 4° C., 10 minutes) in a cytospin machine. Induction of oxidative stress was evaluated using a 2′,7′-dichlorofluorescein fluorescence assay, and total IgE, IgG2a, panel of cytokines, transforming growth factors, collagen, protein nitration and lipid peroxidation were measured using commercial kits according to the manufacturer's recommendations. A Sircol™ collagen assay kit was obtained from Biocolor Life Sciences Assays, a protein nitration assay kit was obtained from Abcam, and other assay kits were obtained from PeproTech Asia.
The efficacy of oral administration of 3-CP (1 weight percent in chow) during the sensitization period and/or challenge period was then compared to IP injection (˜300 mg/kg, 0.5 hour before the OVA challenge) or intranasal instillation (˜150 mg/kg, 0.5 hour before the OVA and 6 hours later) of 3-CP, as well as to dexamethasone treatment (1 mg/kg, 3 daily IP injections, 0.5 hour prior to the challenge with OVA aerosol).
In order to assess the effect of 3-CP on inflammatory signaling pathways, […] to procedures described hereinabove, upon oral, intranasal or IP administration of 3-CP.

[2] = system: TGF-β1; test: TGF-β1 level in bleomycin pulmonary fibrosis model; type: in vivo, mice; settings: 3-CP 150 mg/kg daily intranasal, 14 days, FIG. 19
Description: (§1) Bronchoalveolar lavage (BAL) fluid (also referred to herein as “BALf”) and bronchial submucosal inflammation are characteristic features of asthma. Mice were euthanized with an overdose of 50 mg/kg pentobarbital and ice-cold phosphate buffer saline (PBS) (0.6 ml) was instilled into the lungs. BAL fluid was obtained by three aspirations via tracheal cannulation, centrifuged, and the supernatant collected and stored at −70° C. Cell pellets were re-suspended in PBS and 100 μl aliquots placed onto slides and centrifuged (200 g, 4° C., 10 minutes) in a cytospin machine. Induction of oxidative stress was evaluated using a 2′,7′-dichlorofluorescein fluorescence assay, and total IgE, IgG2a, panel of cytokines, transforming growth factors, collagen, protein nitration and lipid peroxidation were measured using commercial kits according to the manufacturer's recommendations. A Sircol™ collagen assay kit was obtained from Biocolor Life Sciences Assays, a protein nitration assay kit was obtained from Abcam, and other assay kits were obtained from PeproTech Asia. […]
(§2) The effect of 3-CP on bleomycin-induced inflammation was evaluated by determining lung resistance, total inflammatory cell count, and TGF-β1 levels, according to procedures described hereinabove.

[3] = system: mice with OVA-induced chronic asthma; test: Pulmonary collagen content, severe (chronic) asthma model; type: in vivo; settings: FIG. 16
Description: Bronchoalveolar lavage (BAL) fluid (also referred to herein as “BALf”) and bronchial submucosal inflammation are characteristic features of asthma. Mice were euthanized with an overdose of 50 mg/kg pentobarbital and ice-cold phosphate buffer saline (PBS) (0.6 ml) was instilled into the lungs. BAL fluid was obtained by three aspirations via tracheal cannulation, centrifuged, and the supernatant collected and stored at −70° C. Cell pellets were re-suspended in PBS and 100 μl aliquots placed onto slides and centrifuged (200 g, 4° C., 10 minutes) in a cytospin machine. Induction of oxidative stress was evaluated using a 2′,7′-dichlorofluorescein fluorescence assay, and total IgE, IgG2a, panel of cytokines, transforming growth factors, collagen, protein nitration and lipid peroxidation were measured using commercial kits according to the manufacturer's recommendations. […]
3-CP was administered orally (1 weight percent in chow) during the entire experiment, and dexamethasone (Dex) was administered via IP injection (1 mg/kg) one hour before each challenge. Inflammatory cell counts and pulmonary collagen content were then evaluated according to procedures described hereinabove, in order to assess effects on inflammation and remodeling, respectively.

[4] = system: mucin production; test: Mucin production by PAS staining of lung tissue, OVA asthma model; type: in vivo, mice
Description: Following aspiration of BAL as described hereinabove, a thoracotomy was performed, and the right main bronchus was tied. The left lung was fixed by means of intrabronchial infusion with 1 ml of 4% formaldehyde, and then immersed in fixative (10% (v/v) neutral buffered formalin) for 24 hours at 4° C. Transverse sections of the left lung were embedded in paraffin, and […] sections were stained with hematoxylin and eosin (H&E) by Hadassah Hospital Pathology Service (Jerusalem, Israel). In addition, periodic acid-Schiff (PAS) staining was performed on lung tissue, and the degree of mucin production was measured from PAS staining.
In order to evaluate the effect of 3-CP on lung pathology, animals in an ovalbumin-induced asthma model were treated with 3-CP, and killed by abdominal aortic transaction and exsanguination, according to procedures described hereinabove. Lung tissue was examined by hematoxylin and eosin (H&E) staining, the degree of mucin production was determined from periodic-acid-Schiff (PAS) staining.

[5] = system: bleomycin-induced pulmonary fibrosis; test: Inflammatory cell counts in BAL fluid, bleomycin pulmonary fibrosis model; type: in vivo, mice; settings: 3-CP 150 mg/kg daily intranasal, 14 days, FIG. 18
Description: as §1, §2

Question: With `CC1(C)CC(C(N)=O)C(C)(C)N1[O]` (stereo not drawn) [3-CP, 3-Carbamoyl-2,2,5,5-tetramethyl-pyrrolidin-1-oxyl] as the compound, how does the IL-5 level ([1]; OVA IP-C: 3-CP intraperitoneal during challenge) read?
Answer: 2.08 ng/mg

Question: And the IL-5 level ([1]; OVA oral-C: 3-CP oral during challenge)?
Answer: 2.40 ng/mg

Question: And the IL-5 level ([1]; OVA oral-S&C: 3-CP oral during sensitization and challenge)?
Answer: 1.96 ng/mg

Question: What about the IL-5 level ([1]; OVA oral-S: 3-CP oral during sensitization) of the same compound?
Answer: 3.16 ng/mg

Question: And the “effect on OVA-induced increase in the level of IL-5” value ([1]; lung tissue, FIG. 7B and Table 1)?
Answer: inhibited

Question: And the “modulating IL-5 level, oral compared with IP 3-CP” value ([1]; oral administration vs IP injection)?
Answer: consistently more effective than IP injection of 3-CP

Question: And the “effect on bleomycin-induced increase in TGF-β1 expression in lungs” value [2]?
Answer: significantly reduced

Question: And the “effect on increase in collagen content of the lung” value ([3]; 3-CP oral 1 weight percent in chow during entire experiment)?
Answer: completely reversed the increase in collagen content

Question: And the “reducing collagen content, 3-CP compared with dexamethasone” value ([3]; 3-CP oral, dexamethasone 1 mg/kg IP before each challenge)?
Answer: more effective than dexamethasone treatment at reducing collagen content

Question: And the “effect on mucin levels, PAS scoring” value ([4]; 3-CP via all tested modes of delivery, FIGS. 10 and 11)?
Answer: reduced the mucin levels

Question: And the “reducing mucin levels, 3-CP compared with dexamethasone” value ([4]; FIG. 10)?
Answer: at least as effective as dexamethasone

Question: And the “effect on bleomycin-induced increase in inflammatory cell counts in BAL fluid” value [5]?
Answer: significantly reduced
